Test results taken from US11021445B2, “Carboxylic acid derivative as AT2R receptor antagonist” (SHANDONG DANHONG PHARMACEUTICAL CO., LTD., priority 2017, dated 2021).
Like-named read-outs stand apart in the source and are kept apart here.

Legend:
hAT2 = molecular target: T1, hAT2 (Homo sapiens, UniProt P50052); test: hAT2 receptor binding assay (SPA, [125I]-Sar1-Ile8-Angiotensin II); settings: membrane of HEK-293 cells overexpressing hAT2; 0.1 nM 125I ligand
T1 construct: expressed in transfected cells; host or cells: HEK-293
T1 sequence (P50052 1-363): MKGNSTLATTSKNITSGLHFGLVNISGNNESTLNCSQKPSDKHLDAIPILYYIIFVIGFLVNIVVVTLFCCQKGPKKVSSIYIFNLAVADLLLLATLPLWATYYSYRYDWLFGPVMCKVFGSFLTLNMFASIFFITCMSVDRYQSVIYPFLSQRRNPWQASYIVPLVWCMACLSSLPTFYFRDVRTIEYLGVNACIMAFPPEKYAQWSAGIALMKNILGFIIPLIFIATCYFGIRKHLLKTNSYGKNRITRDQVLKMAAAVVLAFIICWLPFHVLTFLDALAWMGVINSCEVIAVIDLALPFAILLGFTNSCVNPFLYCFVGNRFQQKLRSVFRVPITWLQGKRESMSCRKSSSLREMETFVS
Experimental: hAT2 Receptor Binding Assay
Protease inhibitor mixture, free of ethylenediaminetetraacetic acid-1 tablets (Roche #11873580001) (50 mL plus one piece)
Experimental Methods and Steps
The reference ligand PD123319 and the test compound were prepared into a 750 μM mother liquor by DMSO; each compound was prepared into a solution of 8 concentration gradients (up to a concentration of 750 μM, 3-fold dilution) and 10 μl of the solution was added to a master of a 384-well plate per well.
The SPA beads were prepared to a mother liquor of 25 mg/ml by the buffer;
The isotope [^125I]-Sar1-Ile8-Angiotensin II was prepared into a mother liquor of 50 μCi/ml by adding pure water.
The cell membrane overexpressing hAT2 in HEK-293 cells was prepared to 2.5 mg/ml by the buffer.
200 nl of compound was aspirated from the mother plate with ECHO to each well of the 384-well test plate. ZPE was added to an equal volume of DMSO. (The concentration of the test compound in the reaction was diluted by 250 times).
A 50 ml membrane solution containing 10 μg/μl of magnetic beads and 0.05 μg/μl of AT2 was prepared, placed on a shaker and uniformly mixed. (100 rpm, 30 min). The test plate finally contained an hAT2 membrane with 1.25 μg/well and magnetic beads with 250 μg/well.
A 3.2 ml membrane liquid mixture was added to the compound test plate by using a Multidrop Combi pipette, and 25 μl was added to each well.
A 0.2 nM solution was prepared with 50 μCi/ml of isotope [^125I]-Sar1-Ile8-Angiotensin II mother liquor by the buffer, and 0.2 nM of ^125I was added to the compound test plate with a Multidrop Combi pipette. A volume of 25 μl was added to each well. The final concentration of ^125I isotope is 0.1 nM.
The prepared test plate was placed on a shaker overnight at room temperature at 200 rpm.
The test plate was centrifuged with a centrifuge at 1200 rpm for 1 min.
The centrifuged test plate was read with Microbeta.

[1] = Determination of kinetic solubility; format: physicochemical; settings: buffer solution pH 7.4, aqueous buffer, kinetic from dmso stock, pH 7.4, 24 hours at room temperature, theoretical maximum 200 μM
Experimental: The to-be-tested compound was dissolved in DMSO to prepare a 10 mmol/L stock solution. 980 μL of dissolution medium was pipetted into a 2 mL screw-capped glass vial by using a pipette (Eppendorf Research Company). 20 μL of the stock solution of each test compound and the QC sample were added to a buffer solution corresponding to a kinetic detection solution of pH 7.4. The final concentrations of the test compound and DMSO solution were 200 μM and 2%, respectively. The cover of the medicine bottle was screwed. The theoretical maximum concentration is 200 μM. The mixture was shaken at 880 rpm for 24 hours at room temperature. The vial was centrifuged for 30 minutes at 13,000 rpm. 200 μL of the supernatant was added to a 96-well plate by using a digital pipette. The solubility of the test compound was determined by high performance liquid chromatography, and the experimental results are shown in Table 2.

[2] = Plasma protein binding rate (PPB) test, equilibrium dialysis; format: in vitro ADME; settings: human, 37°C
Experimental: (§1) In vitro protein binding rates of 0.2 μM, 2 μM, 10 μM of test compounds with Sprague-Dawley rats, beagle dogs, human plasma were determined by equilibrium dialysis.
(§2) The experiment will use a 96-well equilibrium dialysis plate (HTDialysis device) to determine the plasma protein binding rate of the to-be-tested compound and the control compounds.
(§3) Prior to the start of the experiment, the dialysis membrane was pretreated according to the instructions for use and the dialysis unit was assembled as required.
(§4) Blank plasma was taken from CD-1 mice, Sprague-Dawley rats, Beagle dogs, cynomolgus monkeys and humans (an anticoagulant is EDTA-K2, which is a commercial product purchased, or is collected and prepared by the Drug Evaluation Department of Wuxi AppTech, and is stored in a refrigerator below −60° C. before use). A certain volume of the to-be-tested compound or the control compound working solution was added to prepare plasma samples of the compound to be tested at a concentration of 0.2, 2, 10 μM and plasma samples of the control compound at a concentration of 2 μM (n=1). The organic phase content was ≤1%. First, a certain volume of a plasma sample containing the to-be-tested compound and the control compound was taken out into the sample receiving plate as a sample at zero time (T0 sample, n=3); secondly, a plasma sample containing the to-be-tested compound and the control compound was added to one side of the dialysis membrane (plasma end, n=3), and a certain volume of dialysis buffer (buffer end, n=3) was added to the other side of the dialysis membrane; then the dialysis plate was placed in a humidified incubator with 5% CO2 for incubation for 4 hours at 37±1° C.
(§5) After the incubation, a certain volume of the dialyzed buffer sample (F sample) and the dialyzed plasma sample (T sample) were transferred to the sample receiving plate, and all samples were subjected to protein precipitation for LC/MS/MS analysis. And the dissociation rate of the compound (% Unbound) was calculated by the following formula: % Unbound=100*[F]/[T], % Bound=100−% Unbound. Wherein, % Unbound is the dissociation rate of the compound; % Bound is the binding rate of the compound; [F] is the concentration of the compound at the buffer end of the dialysis plate; [T] is the concentration of the compound at the plasma end of the dialysis plate; and the experimental results are shown in Table 7.

[3] = as above; format: in vitro ADME, Sprague-Dawley rats; settings: Sprague-Dawley, rat, 37°C, read-out: Plasma Protein Binding (%) SD Rat Plasma (converted)
Experimental: as §1, §2, §3, §4, §5

N#Cc1ccc2c(c1OCc1ccccc1)C[C@@H](C(=O)O)N(C(=O)[C@H](OC1CCCC1)c1ccccc1)C2 [Compound 111]
IC50 (hAT2): 15.9 nM | solubility at 24 h [1]: > 200 µM | fraction unbound at 4 h [2]: 0.002 | fraction unbound at 4 h [3]: 0.002
